Data from ChEMBL document CHEMBL4261621, “Synthesis of enamino-2-oxindoles via conjugate addition between α-azido ketones and 3-alkenyl oxindoles: Cytotoxicity evaluation and apoptosis inducing studies” (Bioorg Med Chem Lett, 2018).
pIC50: −log10 of the molar value. Active and inactive are the calls of the source. The rule behind the calls is not given here.

What was measured:
[1] = system: HCT-15; assay: Cytotoxicity against human HCT15 cells at 30 uM after 48 hrs by MTT assay relative to control; format: functional
[2] = system: NCI-H460; assay: Cytotoxicity against human NCI-H460 cells at 30 uM after 48 hrs by MTT assay relative to control; format: functional
[3] = system: NCI-H460; assay: Cytotoxicity against human NCI-H460 cells after 72 hrs by MTT assay; format: functional, cell-based; details: NCI-H460, 72 h
[4] = system: MDA-MB-231; assay: Cytotoxicity against human MDA-MB-231 cells after 72 hrs by MTT assay; format: functional, cell-based; details: MDA-MB-231, 72 h
[5] = system: NCI-H460; assay: Cytotoxicity against human NCI-H460 cells assessed as reduction in cell viability after 72 hrs by phase contrast microscopic analysis; format: functional, cell-based
[6] = system: NCI-H460; assay: Induction of morphological changes in human NCI-H460 cells assessed as cell detachment after 72 hrs by phase contrast microscopic analysis; format: functional, cell-based
[7] = system: NCI-H460; assay: Induction of apoptosis in human NCI-H460 cells assessed as reduction in cell number at 0.25 to 10 uM after 72 hrs by acridine orange/ethidium bromide staining based fluorescence microscopic analysis; format: functional
[8] = system: NCI-H460; assay: Induction of apoptosis in human NCI-H460 cells assessed as cell shrinkage at 0.25 to 10 uM after 72 hrs by acridine orange/ethidium bromide staining based fluorescence microscopic analysis; format: functional
[9] = system: NCI-H460; assay: Induction of mitochondrial membrane potential loss in human NCI-H460 cells assessed as increase in depolarized cell population after 72 hrs by JC1 staining based flow cytometry; format: functional
[10] = system: NCI-H460; assay: Induction of mitochondrial membrane potential loss in human NCI-H460 cells assessed as depolarized cell population at 5 uM after 72 hrs by JC1 staining based flow cytometry (reference value: 11.63%); format: functional
[11] = system: NCI-H460; assay: Induction of mitochondrial membrane potential loss in human NCI-H460 cells assessed as depolarized cell population at 10 uM after 72 hrs by JC1 staining based flow cytometry (reference value: 11.63%); format: functional
[12] = system: NCI-H460; assay: Induction of apoptosis in human NCI-H460 cells assessed as viable cells at 1 uM after 72 hrs by Annexin V-alexa fluor 488/propidium iodide staining based flow cytometry (reference value: 98.55%); format: functional; details: NCI-H460, 72 h, read-out: Activity
[13] = system: NCI-H460; assay: Induction of apoptosis in human NCI-H460 cells assessed as necrotic cells at 1 uM after 72 hrs by Annexin V-alexa fluor 488/propidium iodide staining based flow cytometry (reference value: 0.34%); format: functional
[14] = system: NCI-H460; assay: Induction of apoptosis in human NCI-H460 cells assessed as early apoptotic cells at 2.5 uM after 72 hrs by Annexin V-alexa fluor 488/propidium iodide staining based flow cytometry (reference value: 0.77%); format: functional
[15] = system: NCI-H460; assay: Induction of apoptosis in human NCI-H460 cells assessed as necrotic cells at 2.5 uM after 72 hrs by Annexin V-alexa fluor 488/propidium iodide staining based flow cytometry (reference value: 0.34%); format: functional
[16] = system: NCI-H460; assay: Induction of apoptosis in human NCI-H460 cells assessed as late apoptotic cells at 5 uM after 72 hrs by Annexin V-alexa fluor 488/propidium iodide staining based flow cytometry (reference value: 0.34%); format: functional
[17] = system: NCI-H460; assay: Induction of apoptosis in human NCI-H460 cells assessed as necrotic cells at 5 uM after 72 hrs by Annexin V-alexa fluor 488/propidium iodide staining based flow cytometry (reference value: 0.34%); format: functional
[18] = system: NCI-H460; assay: Induction of apoptosis in human NCI-H460 cells assessed as viable cells at 10 uM after 72 hrs by Annexin V-alexa fluor 488/propidium iodide staining based flow cytometry (reference value: 98.55%); format: functional; details: NCI-H460, 72 h, read-out: Activity
[19] = system: NCI-H460; assay: Induction of apoptosis in human NCI-H460 cells assessed as early apoptotic cells at 10 uM after 72 hrs by Annexin V-alexa fluor 488/propidium iodide staining based flow cytometry (reference value: 0.77%); format: functional
[20] = system: NCI-H460; assay: Induction of apoptosis in human NCI-H460 cells assessed as increase in late apoptotic cells after 72 hrs by Annexin V-alexa fluor 488/propidium iodide staining based flow cytometry; format: functional, cell-based
[21] = system: NCI-H460; assay: Cell cycle arrest in human NCI-H460 cells assessed as accumulation at G2/M phase at 1 uM after 24 hrs by propidium iodide staining based flow cytometry (reference value: 35.49%); format: functional
[22] = system: NCI-H460; assay: Cell cycle arrest in human NCI-H460 cells assessed as accumulation at G0/G1 phase at 2.5 uM after 24 hrs by propidium iodide staining based flow cytometry (reference value: 49.6%); format: functional
[23] = system: NCI-H460; assay: Cell cycle arrest in human NCI-H460 cells assessed as accumulation at sub-G1 phase at 5 uM after 24 hrs by propidium iodide staining based flow cytometry (reference value: 0.99%); format: functional
[24] = system: NCI-H460; assay: Cell cycle arrest in human NCI-H460 cells assessed as accumulation at S phase at 5 uM after 24 hrs by propidium iodide staining based flow cytometry (reference value: 9.93%); format: functional
[25] = system: NCI-H460; assay: Cell cycle arrest in human NCI-H460 cells assessed as accumulation at G2/M phase at 5 uM after 24 hrs by propidium iodide staining based flow cytometry (reference value: 35.49%); format: functional
[26] = system: NCI-H460; assay: Cell cycle arrest in human NCI-H460 cells assessed as accumulation at sub-G1 phase at 10 uM after 24 hrs by propidium iodide staining based flow cytometry (reference value: 0.99%); format: functional

CCOC(=O)/C(=C(\N)C(=O)c1ccccc1)C1C(=O)N(C)c2ccc(F)cc21 (stereo unspecified)
Activity [1]: >50% | Activity [2]: >50% | pIC50 [3]: 5.85 | pIC50 [4]: 5.20 | Activity [5]: Dose-dependent effect | Activity [6]: Dose-dependent effect | Activity [7]: Active | Activity [8]: Active | Activity [9]: Dose-dependent effect | Activity [10]: 83.8% | Activity [11]: 90.49% | viability at 1 µM [12]: 87.9% | Activity [13]: 0.24% | Activity [14]: 19.4% | Activity [15]: 0.34% | Activity [16]: 3.27% | Activity [17]: 0.21% | viability at 10 µM [18]: 40.4% | Activity [19]: 57.78% | Activity [20]: Dose-dependent effect | Activity [21]: 61.59% | Activity [22]: 9.73% | Activity [23]: 11.94% | Activity [24]: 3.59% | Activity [25]: 65.46% | Activity [26]: 11.66%
